Assay results published in patent publication US9937217B2, “Method of inhibiting ABCG2 and related treatments” (The United States of America, as represented by the …, priority 2007, dated 2018).
Several values for one entry are separate records, joined by “and”; a condition that tells them apart may be missing. Identical values can stand only once. Like-named read-outs stand apart in the source and are kept apart here.

Key:
ABCG2 [1] = target: T1, ABCG2 (Homo sapiens, UniProt Q9UNQ0); experiment: Pheophorbide a (PhA) accumulation screening assay; format: cell-based
T1 sequence (Q9UNQ0 1-655): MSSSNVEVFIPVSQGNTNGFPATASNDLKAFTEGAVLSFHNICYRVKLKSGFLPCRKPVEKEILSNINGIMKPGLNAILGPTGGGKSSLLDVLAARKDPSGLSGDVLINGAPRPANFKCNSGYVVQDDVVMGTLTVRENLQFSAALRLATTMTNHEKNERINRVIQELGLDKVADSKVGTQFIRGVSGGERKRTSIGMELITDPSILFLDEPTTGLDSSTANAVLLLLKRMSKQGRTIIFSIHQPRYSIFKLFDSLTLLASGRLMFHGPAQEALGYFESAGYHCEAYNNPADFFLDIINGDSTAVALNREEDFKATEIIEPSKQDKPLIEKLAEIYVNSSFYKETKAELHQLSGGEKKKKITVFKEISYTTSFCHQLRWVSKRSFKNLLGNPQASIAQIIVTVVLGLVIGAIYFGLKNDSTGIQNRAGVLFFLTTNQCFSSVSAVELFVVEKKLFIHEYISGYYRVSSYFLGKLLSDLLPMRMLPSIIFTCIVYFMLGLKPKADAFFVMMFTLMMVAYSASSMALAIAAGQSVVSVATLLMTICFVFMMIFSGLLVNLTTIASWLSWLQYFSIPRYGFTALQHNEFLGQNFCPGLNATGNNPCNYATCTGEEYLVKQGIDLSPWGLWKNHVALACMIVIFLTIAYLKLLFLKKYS
Protocol: (§1) To prepare the cell culture, NCI-H460 human lung non-small-cell carcinoma cells (National Cancer Institute, Frederick, Md.) are selected for over-expression of ABCG2 by maintenance in RPMI1640/10% FBS supplemented with 20 nM mitoxantrone (Robey et al., Biochim. Biophys. Acta, 1512: 171-82 (2001)). After removal of mitoxantrone, cells are further grown in the same medium without mitoxantrone for 5-30 days. These cells are designated NCI-H460/MX20. Parental cells (low ABCG2 expression) (Robey et al., vide supra) are maintained in the same medium without mitoxantrone. ABCG2-transfected or MDR1-transfected (i.e. Pgp-expressing) HEK293 cells are maintained in 2 mg/ml G418 as previously described (Robey et al., Br. J. Cancer, 89: 1971-8 (2003)). MRP1-transfected HEK293 cells are maintained in 5 μM etoposide. MCF-7 FLV1000 cells are maintained in Richter's medium with 10% FCS and Pen/strep with 1000 nM flavopiridol (Robey et al., Clin. Cancer Res., 7: 145-52 (2001)).
Accumulation of pheophorbide a, a fluorescent ABCG2 substrate (Jonker et al., Proc. Natl. Acad. Sci. USA, 99: 15649-54 (2002) and Robey et al., Cancer Res., 64: 1242-6 (2004)), formed the basis of the assay for inhibitors of ABCG2 activity (Henrich et al., J. Biomol. Screen, 11: 176-83 (2006)). Briefly, NCI-H460/MX20 cells are transferred to black wall, clear bottom 384-well polylysine-coated assay plates (Corning, Corning, N.Y.) and allowed to attach for several hours. Pheophorbide a (1 μM final concentration) is added immediately followed by compounds or vehicle (DMSO/PBS) control and incubated an additional 18 h. After removal of medium and washing with PBS containing Ca^2+ and Mg^2+, fluorescence intensity is read on a Tecan Safire fluorescence plate reader in bottom read mode, 395 nm excitation, 670 nm emission. Each plate has control wells containing 10 μM (final concentration) FTC. Data are normalized to FTC and reported as % of FTC fluorescence.

NCI-H460/MX20 cells = experiment: Sensitization of ABCG2-overexpressing cells to killing by mitoxantrone (XTT assay); format: cell-based, human; settings: for MX sensitization: % NCI-H460/MX20 cell survival in the presence of compound and mitoxantrone: 10 μM compound
Protocol: After removal of mitoxantrone, cells are further grown in the same medium without mitoxantrone for 5-30 days. These cells are designated NCI-H460/MX20. Parental cells (low ABCG2 expression) (Robey et al., vide supra) are maintained in the same medium without mitoxantrone. […] MRP1-transfected HEK293 cells are maintained in 5 μM etoposide.
Final DMSO concentration is 0.2% (v/v).

ABCG2 [2] = target: T1, ABCG2; experiment: BODIPY-prazosin efflux, ABCG2-transfected HEK293 cells (flow cytometry); settings: 10 μM compound
Protocol: (§2) APC fluorescence is measured with a 635 nm read diode laser and 561 nm longpass filter. At least 10000 events are collected. Dead cells are eliminated based on propidium iodide exclusion.
(§3) Cells are then washed and incubated in substrate-free medium continuing with or without inhibitor for 1 h.

ABCG2 [3] = target: T1, ABCG2; format: cell-based; settings: compound, ABCG2-transfected HEK293
Protocol: At least 10000 events are collected. Dead cells are eliminated based on propidium iodide exclusion.
Five compounds are examined for their ability to increase surface staining of the 5D3 antibody.
The 5D3 shift assay is performed as described by Ozvegy-Laczka et al. with minor modifications. […] Cells are subsequently washed and incubated with APC-labeled goat anti-mouse secondary antibody (1:35) for 30 min after which the cells are washed and analyzed.

ABCG2 [4] = target: T1, ABCG2; experiment: Photoaffinity labeling of ABCG2 with [125I]-IAAP in MCF-7 FLV1000 membranes; format: binding; settings: 20 μM compound; for activity at 10 min, 20 µM: human, crude membranes of MCF-7 FLV1000 cells expressing ABCG2, pH 7.5, probe [125I]-IAAP, 3-6 nM (2200 Ci/mmole), read-out: Blocking of 125I-IAAP binding: % of control binding
Protocol: ABCG2 expressed in MCF-7 FLV1000 cells is photo-labeled with [^125I]-IAAP as described previously (Shukla et al., Biochemistry, 45: 8940-51 (2006)). Briefly, crude membranes (1 mg protein/me of MCF-7 FLV1000 cells are incubated with 20 μM of the indicated compound for 10 min at room temperature in 50 mM Tris-HCl, pH 7.5. 3-6 nM [^125I]-IAAP (2200 Ci/mmole) (PerkinElmer Life Sciences, Wellesley, Mass.) is added, and the samples are incubated for an additional 5 min under subdued light. The samples are then exposed to ultraviolet (UV, 365 nm) light for 10 min, and the labeled ABCG2 is immunoprecipitated using BXP-21 antibody. The radioactivity incorporated into the ABCG2 band is quantified using the STORM 860 PhosphorImager system (Molecular Dynamics, Sunnyvale, Calif.) and ImageQuaNT software (Molecular Dynamics).

ABCG2 [5] = target: T1, ABCG2; settings: NCI-H460/MX20 cells; Henrich et al., 2006; read-out: Pheophorbide a IC50 for FTC; cited from earlier work
Pgp = Pgp (Homo sapiens, UniProt P08183)
Protocol: as §2, §3

MRP1 = target: T2, MRP1 (Homo sapiens, UniProt P33527); experiment: Calcein efflux, MRP1-transfected HEK293 cells (flow cytometry); format: cell-based; settings: 10 μM compound
T2 construct: expressed in transfected cells; host or cells: HEK293
Protocol: as §2, §3

NCI-H460 cells = experiment: Mitoxantrone / compound cytotoxicity in parental cells (XTT assay); format: cell-based; settings: Homo sapiens, 48 h; unselected NCI-H460 cells, 30 μM mitoxantrone, 2 days, (sd); read-out: Cell numbers, % of control (vehicle), mitoxantrone alone
Protocol: as §1
The ability of compounds to sensitize NCI-H460/MX20 cells to killing by mitoxantrone is assessed as described in Henrich et al. (J. Biomol. Screen, 11: 176-83 (2006)). ABCG2 over-expressing cells or parental cells are treated with mitoxantrone in the presence or absence of 10 μM compound (or 1 μM FTC) and cell numbers assessed after 2 d by an XTT assay (Scudiero et al., Cancer Res., 48: 4827-33 (1988)). […]

[6] = NCI-H460/MX20 cells, PhA accumulation, read-out: Pheophorbide a IC50

T2 sequence (P33527 whole entry): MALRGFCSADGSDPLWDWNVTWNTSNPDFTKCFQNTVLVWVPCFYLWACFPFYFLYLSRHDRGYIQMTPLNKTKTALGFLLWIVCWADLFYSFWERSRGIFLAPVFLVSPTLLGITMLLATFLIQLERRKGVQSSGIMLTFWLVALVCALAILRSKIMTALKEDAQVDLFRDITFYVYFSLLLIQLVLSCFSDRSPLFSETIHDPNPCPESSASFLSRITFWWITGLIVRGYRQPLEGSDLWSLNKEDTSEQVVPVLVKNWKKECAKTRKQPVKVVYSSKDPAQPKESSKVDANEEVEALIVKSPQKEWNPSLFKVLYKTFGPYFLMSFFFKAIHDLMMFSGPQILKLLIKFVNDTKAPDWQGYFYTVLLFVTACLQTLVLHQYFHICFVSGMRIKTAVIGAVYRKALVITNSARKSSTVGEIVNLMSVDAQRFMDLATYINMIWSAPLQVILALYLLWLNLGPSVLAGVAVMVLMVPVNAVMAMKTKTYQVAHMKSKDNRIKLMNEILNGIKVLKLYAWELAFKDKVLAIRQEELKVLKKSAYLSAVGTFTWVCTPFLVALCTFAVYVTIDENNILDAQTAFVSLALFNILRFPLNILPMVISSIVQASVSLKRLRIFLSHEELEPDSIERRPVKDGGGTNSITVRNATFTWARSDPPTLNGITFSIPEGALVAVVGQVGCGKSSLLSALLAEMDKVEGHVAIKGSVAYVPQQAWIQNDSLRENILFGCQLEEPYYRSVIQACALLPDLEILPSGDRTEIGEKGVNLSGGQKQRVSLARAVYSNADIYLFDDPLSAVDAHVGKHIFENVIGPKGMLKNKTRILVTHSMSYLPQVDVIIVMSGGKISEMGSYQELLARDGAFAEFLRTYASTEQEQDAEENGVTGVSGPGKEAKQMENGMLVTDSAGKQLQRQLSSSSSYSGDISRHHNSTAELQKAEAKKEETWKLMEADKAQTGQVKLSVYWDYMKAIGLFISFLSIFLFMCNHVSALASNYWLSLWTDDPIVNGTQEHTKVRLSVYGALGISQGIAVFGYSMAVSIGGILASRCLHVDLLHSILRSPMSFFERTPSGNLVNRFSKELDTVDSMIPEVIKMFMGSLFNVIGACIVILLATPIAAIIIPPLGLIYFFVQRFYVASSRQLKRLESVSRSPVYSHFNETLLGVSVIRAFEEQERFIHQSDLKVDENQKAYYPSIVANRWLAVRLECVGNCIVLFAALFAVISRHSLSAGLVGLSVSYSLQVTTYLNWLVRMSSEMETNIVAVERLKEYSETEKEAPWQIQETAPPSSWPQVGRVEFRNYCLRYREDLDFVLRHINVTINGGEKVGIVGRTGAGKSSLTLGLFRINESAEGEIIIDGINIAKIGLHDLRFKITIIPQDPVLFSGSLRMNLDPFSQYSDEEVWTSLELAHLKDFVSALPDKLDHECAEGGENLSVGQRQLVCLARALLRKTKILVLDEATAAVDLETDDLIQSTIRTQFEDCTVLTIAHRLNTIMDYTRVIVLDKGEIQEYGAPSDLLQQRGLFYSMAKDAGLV
Sequence of Pgp (P08183 whole entry): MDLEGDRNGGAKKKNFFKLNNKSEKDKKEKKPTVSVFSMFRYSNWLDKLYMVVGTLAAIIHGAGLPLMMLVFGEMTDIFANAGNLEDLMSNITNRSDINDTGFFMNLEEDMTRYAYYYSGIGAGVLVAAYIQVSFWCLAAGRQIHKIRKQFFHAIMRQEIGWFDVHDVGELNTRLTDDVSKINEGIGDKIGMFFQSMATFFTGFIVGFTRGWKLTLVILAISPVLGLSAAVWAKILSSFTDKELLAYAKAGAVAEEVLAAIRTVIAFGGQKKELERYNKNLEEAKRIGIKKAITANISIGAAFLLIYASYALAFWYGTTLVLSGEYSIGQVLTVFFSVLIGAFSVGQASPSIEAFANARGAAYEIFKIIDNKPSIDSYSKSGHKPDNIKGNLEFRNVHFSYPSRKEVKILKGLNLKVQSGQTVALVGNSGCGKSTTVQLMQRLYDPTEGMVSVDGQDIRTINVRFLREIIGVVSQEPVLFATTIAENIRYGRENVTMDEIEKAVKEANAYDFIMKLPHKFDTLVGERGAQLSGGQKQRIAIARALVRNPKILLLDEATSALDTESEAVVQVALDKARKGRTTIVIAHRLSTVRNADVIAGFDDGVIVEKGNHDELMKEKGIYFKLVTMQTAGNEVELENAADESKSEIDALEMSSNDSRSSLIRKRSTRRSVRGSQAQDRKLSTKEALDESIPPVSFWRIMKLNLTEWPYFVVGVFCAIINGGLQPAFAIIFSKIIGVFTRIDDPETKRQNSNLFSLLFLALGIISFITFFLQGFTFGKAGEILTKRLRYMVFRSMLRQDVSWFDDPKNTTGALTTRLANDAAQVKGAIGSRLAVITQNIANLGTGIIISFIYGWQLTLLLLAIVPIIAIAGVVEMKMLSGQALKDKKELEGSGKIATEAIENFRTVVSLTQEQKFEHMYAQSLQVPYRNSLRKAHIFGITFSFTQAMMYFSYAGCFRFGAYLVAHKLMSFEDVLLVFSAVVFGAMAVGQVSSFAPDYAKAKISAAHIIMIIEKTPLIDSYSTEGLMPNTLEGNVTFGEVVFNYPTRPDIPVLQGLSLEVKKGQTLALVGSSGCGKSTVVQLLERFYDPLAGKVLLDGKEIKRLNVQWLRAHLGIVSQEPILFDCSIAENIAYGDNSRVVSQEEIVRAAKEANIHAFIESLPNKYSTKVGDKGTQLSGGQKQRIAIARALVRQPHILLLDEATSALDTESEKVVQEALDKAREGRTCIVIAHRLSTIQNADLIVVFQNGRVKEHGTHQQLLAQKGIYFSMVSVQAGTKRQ

SMILES | BODIPY-prazosin efflux: treated/control ratio (ABCG2 [2]) | 5D3 staining: treated/control ratio (ABCG2 [3]) | Pheophorbide a total, % of FTC response (ABCG2 [1]; human, 18 h, 10 µM) | activity at 10 min, 20 µM (ABCG2 [4]) | Pgp inhibition, rhodamine efflux: treated/control ratio (Pgp; human, 10 µM) | MRP1 inhibition, calcein efflux: treated/control ratio (MRP1) | IC50 (ABCG2 [1]; [6]) | Pgp inhibition, rhodamine efflux: treated/control ratio (Pgp; valspodar 3 μg/mL, positive control) | Pheophorbide a total, % of FTC response (ABCG2 [1]; 10 μM compound, NCI-H460/MX20 cells, normalized to 10 μM FTC) | MX sensitization: % NCI-H460/MX20 cell survival in the presence of FTC and mitoxantrone (NCI-H460/MX20 cells; 1 μM FTC, 30 μM mitoxantrone, 2 d) | Blocking of 125I-IAAP binding: % of control binding (ABCG2 [4]) | IC50 (ABCG2 [5]) | IC50 (ABCG2 [1]) | MX sensitization: % NCI-H460/MX20 cell survival in the presence of compound and mitoxantrone (NCI-H460/MX20 cells; 30 μM mitoxantrone, 2 d) | Cell number, % of control, mitoxantrone alone (NCI-H460/MX20 cells; NCI-H460/MX20 cells, mitoxantrone treatment, (sd)) | activity at 30 µM (NCI-H460 cells)
COc1ccc2c3c([nH]c2c1)[C@H](C=C(C)C)N1C(=O)[C@@H]2CCCN2C(=O)[C@@H]1C3 [FTC, fumitremorgin C, reference compound] | 3.5 | 3.7 | – | – | – | – | – | – | 100% | 24.5±1.5% and 24.5% | 32.7% | 0.8 µM | – | – | – | –
Cn1ncc2c(Nc3cccc(Cl)c3)nc(Nc3cccc(Cl)c3)nc21 [NSC11668] | 5.9 | 4.0 | 84.1% | 24.6% | 0.73 | 1.2 | – | – | – | – | – | – | 4.5 µM | 21.9% | – | –
O=C1c2c(O)ccc(O)c2C(=O)c2c(NCCNCCO)ccc(NCCNCCO)c21 [mitoxantrone, reference compound] | – | – | – | – | – | – | – | – | – | – | – | – | – | – | 56.1±2.1% | 21.6 ± 1.6%
C/C=C/C[C@@H](C)C(=O)[C@H]1C(=O)N[C@@H](C(C)C)C(=O)N(C)CC(=O)N(C)[C@@H](CC(C)C)C(=O)N[C@@H](C(C)C)C(=O)N(C)[C@@H](CC(C)C)C(=O)N[C@@H](C)C(=O)N[C@H](C)C(=O)N(C)[C@@H](CC(C)C)C(=O)N(C)[C@@H](CC(C)C)C(=O)N(C)[C@@H](C(C)C)C(=O)N1C [valspodar, reference compound] | – | – | – | – | – | – | – | 14.9 | – | – | – | – | – | – | – | –

The next lines start with results.

BODIPY-prazosin efflux: treated/control ratio (ABCG2 [2]) | 5D3 staining: treated/control ratio (ABCG2 [3]) | Pheophorbide a total, % of FTC response (ABCG2 [1]; human, 18 h, 10 µM) | activity at 10 min, 20 µM (ABCG2 [4]) | Pgp inhibition, rhodamine efflux: treated/control ratio (Pgp; human, 10 µM) | MRP1 inhibition, calcein efflux: treated/control ratio (MRP1) | IC50 (ABCG2 [1]; [6]) | Pgp inhibition, rhodamine efflux: treated/control ratio (Pgp; valspodar 3 μg/mL, positive control) | SMILES | Pheophorbide a total, % of FTC response (ABCG2 [1]; 10 μM compound, NCI-H460/MX20 cells, normalized to 10 μM FTC) | MX sensitization: % NCI-H460/MX20 cell survival in the presence of FTC and mitoxantrone (NCI-H460/MX20 cells; 1 μM FTC, 30 μM mitoxantrone, 2 d) | Blocking of 125I-IAAP binding: % of control binding (ABCG2 [4]) | IC50 (ABCG2 [5]) | IC50 (ABCG2 [1]) | MX sensitization: % NCI-H460/MX20 cell survival in the presence of compound and mitoxantrone (NCI-H460/MX20 cells; 30 μM mitoxantrone, 2 d) | Cell number, % of control, mitoxantrone alone (NCI-H460/MX20 cells; NCI-H460/MX20 cells, mitoxantrone treatment, (sd)) | activity at 30 µM (NCI-H460 cells)
3.5 | 3.6 | 76.6% | 33.5% | 0.77 | 1.3 | 2.6 µM | – | Cn1ncc2c(NCCc3ccccc3)nc(Cl)nc21 [NSC19139] | – | – | – | – | – | 30.0% | – | –
2.0 | 3.7 | 67.2% | 19.1% | 0.84 | 0.81 | 4.3 µM | – | O=C(O)c1ccc(/C=N/N=C2c3ccccc3-c3ccccc32)cc1 [NSC120688] | – | – | – | – | – | 20.9% | – | –
2.6 | 3.7 | 104.5% | 34.2% | 0.64 | 0.81 | 3.9 µM | – | COc1cc2c[n+](C)c3c4cc(OC)c(OC)cc4ccc3c2cc1OC [NSC168201] | – | – | – | – | – | 21.2% | – | –
3.6 | 3.2 | 63.8% | 48.7% | 0.84 | 1.8 | – | – | Cc1cc(O)nc2cc3oc4ccccc4c3cc12 [NSC375985] | – | – | – | – | 3.7 µM | 27.6% | – | –
